Tests used:
Format in all cases: in vivo
Septoria tritici = assay: Test E: wheat leaf blotch, preventive spray on wheat seedlings; conditions: 200 ppm, wheat seedlings sprayed to run-off, inoculated next day, rated after 48 h + 19 days
Source text: General protocol for preparing test suspensions for Tests A-G: the test compounds were first dissolved in acetone in an amount equal to 11% of the final volume and then suspended at the desired concentration (in ppm) in acetone and purified water (50/50 mix by volume) containing 250 ppm of the surfactant Trem® 014 (polyhydric alcohol esters). The resulting test suspensions were then used in Tests A-G. Spraying a 200 ppm test suspension to the point of run-off on the test plants was the equivalent of a rate of 800 g/ha. The test suspension was sprayed to the point of run-off on wheat seedlings. The following day the seedlings were inoculated with a spore suspension of Septoria tritici (the causal agent of wheat leaf blotch) and incubated in a saturated atmosphere at 24° C. for 48 h, and then moved to a growth chamber at 20° C. for 19 days, after which time disease ratings were visually made. Results for Tests A-G are given in Table A. In the Table, a rating of 100 indicates 100% disease control and a rating of 0 indicates no disease control (relative to the controls). A dash (-) indicates no test results. All results are for 200 ppm except where followed by an “*”, which indicates 40 ppm.

Alternaria solani = assay: Test G: tomato early blight, preventive spray on tomato seedlings; conditions: tomato seedlings sprayed to run-off, inoculated next day, rated after 48 h + 5 days; for Percentage Disease Control Test G: 200 ppm
Source text: General protocol for preparing test suspensions for Tests A-G: the test compounds were first dissolved in acetone in an amount equal to 11% of the final volume and then suspended at the desired concentration (in ppm) in acetone and purified water (50/50 mix by volume) containing 250 ppm of the surfactant Trem® 014 (polyhydric alcohol esters). The resulting test suspensions were then used in Tests A-G. Spraying a 200 ppm test suspension to the point of run-off on the test plants was the equivalent of a rate of 800 g/ha. The test suspension was sprayed to the point of run-off on tomato seedlings. The following day the seedlings were inoculated with a spore suspension of Alternaria solani (the causal agent of tomato early blight) and incubated in a saturated atmosphere at 27° C. for 48 h, and then moved to a growth chamber at 24° C. for 5 days, after which time disease ratings were visually made. Results for Tests A-G are given in Table A. In the Table, a rating of 100 indicates 100% disease control and a rating of 0 indicates no disease control (relative to the controls). A dash (-) indicates no test results. All results are for 200 ppm except where followed by an “*”, which indicates 40 ppm.

[1] = test system: Erysiphe graminis f. sp. tritici; assay: Test A: wheat powdery mildew, preventive spray on wheat seedlings; conditions: wheat seedlings sprayed to run-off, inoculated next day, rated after 8 days, 100 = 100% disease control, 0 = no control; for Percentage Disease Control Test A: 200 ppm
Source text: General protocol for preparing test suspensions for Tests A-G: the test compounds were first dissolved in acetone in an amount equal to 11% of the final volume and then suspended at the desired concentration (in ppm) in acetone and purified water (50/50 mix by volume) containing 250 ppm of the surfactant Trem® 014 (polyhydric alcohol esters). The resulting test suspensions were then used in Tests A-G. Spraying a 200 ppm test suspension to the point of run-off on the test plants was the equivalent of a rate of 800 g/ha. The test suspension was sprayed to the point of run-off on wheat seedlings. The following day the seedlings were inoculated with a spore dust of Erysiphe graminis f. sp. tritici, (the causal agent of wheat powdery mildew) and incubated in a growth chamber at 20° C. for 8 days, after which time disease ratings were visually made. Results for Tests A-G are given in Table A. In the Table, a rating of 100 indicates 100% disease control and a rating of 0 indicates no disease control (relative to the controls). A dash (-) indicates no test results. All results are for 200 ppm except where followed by an “*”, which indicates 40 ppm.

[2] = test system: Puccinia recondita f sp. tritici; assay: Test B: wheat leaf rust, preventive spray on wheat seedlings; conditions: wheat seedlings sprayed to run-off, inoculated next day, rated after 24 h + 7 days; for Percentage Disease Control Test B: 200 ppm
Source text: General protocol for preparing test suspensions for Tests A-G: the test compounds were first dissolved in acetone in an amount equal to 11% of the final volume and then suspended at the desired concentration (in ppm) in acetone and purified water (50/50 mix by volume) containing 250 ppm of the surfactant Trem® 014 (polyhydric alcohol esters). The resulting test suspensions were then used in Tests A-G. Spraying a 200 ppm test suspension to the point of run-off on the test plants was the equivalent of a rate of 800 g/ha. The test suspension was sprayed to the point of run-off on wheat seedlings. The following day the seedlings were inoculated with a spore suspension of Puccinia recondita f sp. tritici (the causal agent of wheat leaf rust) and incubated in a saturated atmosphere at 20° C. for 24 h, and then moved to a growth chamber at 20° C. for 7 days, after which time disease ratings were visually made. Results for Tests A-G are given in Table A. In the Table, a rating of 100 indicates 100% disease control and a rating of 0 indicates no disease control (relative to the controls). A dash (-) indicates no test results. All results are for 200 ppm except where followed by an “*”, which indicates 40 ppm.

Septoria nodorum = assay: Test D: wheat glume blotch, preventive spray on wheat seedlings; conditions: wheat seedlings sprayed to run-off, inoculated next day, rated after 48 h + 7 days; for Percentage Disease Control Test D: 200 ppm
Source text: General protocol for preparing test suspensions for Tests A-G: the test compounds were first dissolved in acetone in an amount equal to 11% of the final volume and then suspended at the desired concentration (in ppm) in acetone and purified water (50/50 mix by volume) containing 250 ppm of the surfactant Trem® 014 (polyhydric alcohol esters). The resulting test suspensions were then used in Tests A-G. Spraying a 200 ppm test suspension to the point of run-off on the test plants was the equivalent of a rate of 800 g/ha. The test suspension was sprayed to the point of run-off on wheat seedlings. The following day the seedlings were inoculated with a spore suspension of Septoria nodorum (the causal agent of wheat glume blotch) and incubated in a saturated atmosphere at 20° C. for 48 h, and then moved to a growth chamber at 20° C. for 7 days, after which time disease ratings were visually made. Results for Tests A-G are given in Table A. In the Table, a rating of 100 indicates 100% disease control and a rating of 0 indicates no disease control (relative to the controls). A dash (-) indicates no test results. All results are for 200 ppm except where followed by an “*”, which indicates 40 ppm.

Botrytis cinerea = assay: Test F: tomato botrytis, preventive spray on tomato seedlings; conditions: tomato seedlings sprayed to run-off, inoculated next day, rated after 48 h + 3 days; for Percentage Disease Control Test F: 200 ppm
Source text: General protocol for preparing test suspensions for Tests A-G: the test compounds were first dissolved in acetone in an amount equal to 11% of the final volume and then suspended at the desired concentration (in ppm) in acetone and purified water (50/50 mix by volume) containing 250 ppm of the surfactant Trem® 014 (polyhydric alcohol esters). The resulting test suspensions were then used in Tests A-G. Spraying a 200 ppm test suspension to the point of run-off on the test plants was the equivalent of a rate of 800 g/ha. The test suspension was sprayed to the point of run-off on tomato seedlings. The following day the seedlings were inoculated with a spore suspension of Botrytis cinerea (the causal agent of tomato botrytis) and incubated in saturated atmosphere at 20° C. for 48 h, and then moved to a growth chamber at 27° C. for 3 additional days, after which time disease ratings were visually made. Results for Tests A-G are given in Table A. In the Table, a rating of 100 indicates 100% disease control and a rating of 0 indicates no disease control (relative to the controls). A dash (-) indicates no test results. All results are for 200 ppm except where followed by an “*”, which indicates 40 ppm.

[3] = test system: Puccinia recondita f. sp. tritici; assay: Test C: wheat leaf rust, spray the day after inoculation of wheat seedlings; conditions: 200 ppm; wheat seedlings inoculated, sprayed the following day, rated after 5 days;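 note: Curative spray on infected wheat seedlings with visual rating 5 days later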
Source text: General protocol for preparing test suspensions for Tests A-G: the test compounds were first dissolved in acetone in an amount equal to 11% of the final volume and then suspended at the desired concentration (in ppm) in acetone and purified water (50/50 mix by volume) containing 250 ppm of the surfactant Trem® 014 (polyhydric alcohol esters). The resulting test suspensions were then used in Tests A-G. Spraying a 200 ppm test suspension to the point of run-off on the test plants was the equivalent of a rate of 800 g/ha. Wheat seedlings were inoculated with a spore suspension of Puccinia recondita f. sp. tritici (the causal agent of wheat leaf rust) and incubated in a saturated atmosphere at 20° C. for 24 h. The following day, the test suspension was sprayed to the point of run-off on the wheat seedlings and then moved to a growth chamber at 20° C. for 5 days, after which time disease ratings were visually made. Results for Tests A-G are given in Table A. In the Table, a rating of 100 indicates 100% disease control and a rating of 0 indicates no disease control (relative to the controls). A dash (-) indicates no test results. All results are for 200 ppm except where followed by an “*”, which indicates 40 ppm.

`COC(=O)NCc1cc(-c2ccn(-c3ccc4c(c3)CCCO4)n2)ccc1Cl` [Compound 1, methyl N-[[2-chloro-5-[1-(3,4-dihydro-2H-1-benzopyran-6-yl)-1H-pyrazol-3-yl]phenyl]methyl]carbamate] gave a pest or weed control at 200 ppm (Septoria tritici; Zymoseptoria tritici, 456 h, read-out: Percentage Disease Control Test E) of 92%, a pest or weed control at 200 ppm (Alternaria solani; Alternaria solani, topical, 168 h, read-out: Percentage Disease Control Test G) of 100% and a pest or weed control at 200 ppm ([1]; Blumeria graminis, 192 h, read-out: Percentage Disease Control Test A) of 100%. The pest or weed control at 200 ppm ([2]; Puccinia recondita, 192 h, read-out: Percentage Disease Control Test B) was 100%, the pest or weed control at 200 ppm (Septoria nodorum; Parastagonospora nodorum, 216 h, read-out: Percentage Disease Control Test D) was 100% and the pest or weed control at 200 ppm (Botrytis cinerea; Botrytis cinerea, topical, 120 h, read-out: Percentage Disease Control Test F) was 0%.
With `COC(=O)NCc1cc(-n2ccc(-c3ccc4c(c3)OCCO4)n2)ccc1F` [Compound 10] the “Percentage Disease Control Test E” value (Septoria tritici) was 98%, the “Percentage Disease Control Test G” value (Alternaria solani) was 84% and the “Percentage Disease Control Test A” value [1] was 100%. For the same compound, the “Percentage Disease Control Test B” value [2] was 100%, the “Percentage Disease Control Test D” value (Septoria nodorum) was 100% and the “Percentage Disease Control Test C” value [3] was 100%. For the same compound, the “Percentage Disease Control Test F” value (Botrytis cinerea) was 94%.
In the case of `COC(=O)NCc1cc(-c2ccn(-c3ccc4c(c3)N(C)C(=O)CO4)n2)ccc1F` [Compound 13], the “Percentage Disease Control Test E” value (Septoria tritici) is reported as 24%, the “Percentage Disease Control Test G” value (Alternaria solani) is reported as 54% and the “Percentage Disease Control Test A” value [1] is reported as 90%. For the same compound, the “Percentage Disease Control Test B” value [2] was 100%, the “Percentage Disease Control Test D” value (Septoria nodorum) was 97% and the “Percentage Disease Control Test C” value [3] was 28%. For the same compound, the “Percentage Disease Control Test F” value (Botrytis cinerea) was 7%.
`COC(=O)NCc1cc(-n2ccc(-c3ccc4c(c3)NC(=O)CO4)n2)ccc1F` [Compound 14] was tested, and the “Percentage Disease Control Test E” value (Septoria tritici) was 44%, the “Percentage Disease Control Test G” value (Alternaria solani) was 0% and the “Percentage Disease Control Test A” value [1] was 0%. For the same compound, the “Percentage Disease Control Test B” value [2] was 54%, the “Percentage Disease Control Test D” value (Septoria nodorum) was 0% and the “Percentage Disease Control Test C” value [3] was 0%. The “Percentage Disease Control Test F” value (Botrytis cinerea) was 0%.
`COC(=O)NCc1cc(-n2ccc(-c3ccc4c(c3)NCCO4)n2)ccc1F` [Compound 15] was tested, and the “Percentage Disease Control Test E” value (Septoria tritici) was 99%, the “Percentage Disease Control Test G” value (Alternaria solani) was 12% and the “Percentage Disease Control Test A” value [1] was 0%. The “Percentage Disease Control Test B” value [2] was 100%, the “Percentage Disease Control Test D” value (Septoria nodorum) was 100% and the “Percentage Disease Control Test C” value [3] was 38%. For the same compound, the “Percentage Disease Control Test F” value (Botrytis cinerea) was 80%.
For `COC(=O)NCc1cc(-c2ccn(-c3ccc4c(c3)CCCO4)n2)ccc1Br` [Compound 16], the “Percentage Disease Control Test E” value (Septoria tritici) was 100%, the “Percentage Disease Control Test G” value (Alternaria solani) was 85% and the “Percentage Disease Control Test A” value [1] was 100%. The “Percentage Disease Control Test B” value [2] was 100%, the “Percentage Disease Control Test D” value (Septoria nodorum) was 100% and the “Percentage Disease Control Test C” value [3] was 100%. For the same compound, the “Percentage Disease Control Test F” value (Botrytis cinerea) was 99%.
In the case of `COC(=O)NCc1cc(-c2ccn(-c3ccc4c(c3)OCCO4)n2)ccc1Br` [Compound 17], the “Percentage Disease Control Test E” value (Septoria tritici) is reported as 99%, the “Percentage Disease Control Test G” value (Alternaria solani) is reported as 93% and the “Percentage Disease Control Test A” value [1] is reported as 100%. The “Percentage Disease Control Test B” value [2] was 100%, the “Percentage Disease Control Test D” value (Septoria nodorum) was 100% and the “Percentage Disease Control Test C” value [3] was 100%. The “Percentage Disease Control Test F” value (Botrytis cinerea) was 87%.
In the case of `COC(=O)NCc1cc(-n2ccc(-c3ccc4c(c3)C(=O)CCO4)n2)ccc1F` [Compound 18], the “Percentage Disease Control Test E” value (Septoria tritici) is reported as 97%, the “Percentage Disease Control Test G” value (Alternaria solani) is reported as 50% and the “Percentage Disease Control Test A” value [1] is reported as 90%. The “Percentage Disease Control Test B” value [2] was 100%, the “Percentage Disease Control Test D” value (Septoria nodorum) was 99% and the “Percentage Disease Control Test C” value [3] was 74%. For the same compound, the “Percentage Disease Control Test F” value (Botrytis cinerea) was 79%.
In the case of `COC(=O)NCc1cc(-c2ccn(-c3ccc4c(c3)OCCO4)n2)ccc1C` [Compound 19], the “Percentage Disease Control Test E” value (Septoria tritici) is reported as 100%, the “Percentage Disease Control Test G” value (Alternaria solani) is reported as 73% and the “Percentage Disease Control Test A” value [1] is reported as 100%. The “Percentage Disease Control Test B” value [2] was 100%, the “Percentage Disease Control Test D” value (Septoria nodorum) was 100% and the “Percentage Disease Control Test C” value [3] was 100%. For the same compound, the “Percentage Disease Control Test F” value (Botrytis cinerea) was 99%.

From patent US8921360B2, “Heterobicycle-substituted azolyl benzene fungicides” (priority 2009, dated 2014)
